From patent publication US7709484B1, “Substituted melanocortin receptor-specific piperazine compounds” (Palatin Technologies, Inc., priority 2004, dated 2010)

How the values were obtained:
hMC5-R = hMC5-R (Homo sapiens, UniProt P33032); test: Competitive inhibition binding assay, 125I-NDP-α-MSH, hMC5-R membranes; conditions: 1 μM test compound; 0.4 nM 125I-NDP-α-MSH; mean of triplicate; results less than 0% reported as 0%; read-out: Inhibition at 1 μM MC5-R
Experimental: (§1) Competitive inhibition assay. A competitive inhibition binding assay was conducted using membranes prepared from hMC1-R or B-16 mouse melanoma cells (containing MC1-R), hMC3-R, hMC4-R, and hMC5-R, and using 0.4 nM ^125I-NDP-α-MSH (New England Nuclear, Boston, Mass., USA) in 50 mM HEPES buffer containing 1 mM MgCl2, 2 mM CaCl2, and 5 mM KCl, at pH 7.2. The assay tube also contained a chosen concentration of the test compound of this invention, typically a 1 μM concentration, for determining its efficacy in inhibiting the binding of ^125I-NDP-α-MSH to its receptor. Non-specific binding was measured by complete inhibition of binding of ^125I-NDP-α-MSH in the assay with the presence of 1 μM α-MSH.
(§2) Incubation was for 90 minutes at room temperature, after which the assay mixture was filtered and the membranes washed three times with ice cold buffer. The filter was dried and counted in a gamma counter for remaining radioactivity bound to the membranes. 100% specific binding was defined as the difference in radioactivity (cpm) bound to cell membranes in the absence and presence of 1 μM α-MSH. The cpm obtained in the presence of test compounds are normalized with respect to 100% specific binding to determine the percent inhibition of ^125I-NDP-a-MSH binding. Each assay was conducted in triplicate and the actual mean values are described, with results less than 0% reported as 0%.

hMC4-R = hMC4-R (Homo sapiens, UniProt P32245); test: Competitive inhibition binding assay, 125I-NDP-α-MSH, hMC4-R membranes; conditions: 1 μM test compound; 0.4 nM 125I-NDP-α-MSH; mean of triplicate; results less than 0% reported as 0%; read-out: Inhibition at 1 μM MC4-R
Sequence of hMC4-R (P32245 whole entry): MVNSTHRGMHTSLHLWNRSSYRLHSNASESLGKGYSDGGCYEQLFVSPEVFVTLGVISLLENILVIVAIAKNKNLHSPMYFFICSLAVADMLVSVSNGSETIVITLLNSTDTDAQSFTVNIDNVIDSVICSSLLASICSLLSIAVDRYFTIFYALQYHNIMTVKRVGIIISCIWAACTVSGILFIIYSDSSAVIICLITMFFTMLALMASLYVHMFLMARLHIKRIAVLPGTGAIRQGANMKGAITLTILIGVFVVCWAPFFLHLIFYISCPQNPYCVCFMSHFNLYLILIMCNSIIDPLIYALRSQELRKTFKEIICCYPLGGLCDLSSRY
Experimental: as §1, §2

hMC1-R = hMC1-R (Homo sapiens, UniProt Q01726); test: Competitive inhibition binding assay, 125I-NDP-α-MSH, hMC1-R membranes; conditions: 1 μM test compound; 0.4 nM 125I-NDP-α-MSH; mean of triplicate; results less than 0% reported as 0%; read-out: Inhibition at 1 μM MC1-R (human)
Sequence of hMC1-R (Q01726 whole entry): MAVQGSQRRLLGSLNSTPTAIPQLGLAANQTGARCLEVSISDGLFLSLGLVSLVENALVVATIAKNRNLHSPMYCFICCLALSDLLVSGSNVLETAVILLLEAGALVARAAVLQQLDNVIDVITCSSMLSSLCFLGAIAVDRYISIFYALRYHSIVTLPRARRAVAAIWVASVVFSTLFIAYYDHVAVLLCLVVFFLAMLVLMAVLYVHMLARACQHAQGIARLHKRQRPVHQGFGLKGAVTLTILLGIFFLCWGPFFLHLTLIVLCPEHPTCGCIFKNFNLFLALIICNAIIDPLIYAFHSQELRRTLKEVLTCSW
Experimental: as §1, §2

hMC3-R = hMC3-R (Homo sapiens, UniProt P41968); test: Competitive inhibition binding assay, 125I-NDP-α-MSH, hMC3-R membranes; conditions: 1 μM test compound; 0.4 nM 125I-NDP-α-MSH; mean of triplicate; results less than 0% reported as 0%; read-out: Inhibition at 1 μM MC3-R
Sequence of hMC3-R (P41968 whole entry): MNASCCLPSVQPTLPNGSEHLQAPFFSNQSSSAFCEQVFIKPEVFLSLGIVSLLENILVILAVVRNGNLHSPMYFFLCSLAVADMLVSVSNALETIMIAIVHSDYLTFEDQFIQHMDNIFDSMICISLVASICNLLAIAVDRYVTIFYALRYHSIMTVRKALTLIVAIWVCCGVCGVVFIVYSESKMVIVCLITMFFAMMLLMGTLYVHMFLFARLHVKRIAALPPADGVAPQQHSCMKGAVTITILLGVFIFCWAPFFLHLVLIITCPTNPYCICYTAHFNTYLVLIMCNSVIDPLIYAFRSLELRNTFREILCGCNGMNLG
Experimental: as §1, §2

[1] = molecular target: T1, B-16 mouse melanoma cells (containing MC1-R) (Mus musculus, UniProt Q01727); test: Competitive inhibition binding assay, 125I-NDP-α-MSH, B-16 mouse melanoma cell membranes; conditions: 1 μM test compound; 0.4 nM 125I-NDP-α-MSH; mean of triplicate; results less than 0% reported as 0%; read-out: Inhibition at 1 μM MC1-R (murine)
T1 construct: B-16 mouse melanoma cells (containing MC1-R); endogenous in cells; host or cells: B-16 mouse melanoma cells
T1 sequence (Q01727 whole entry): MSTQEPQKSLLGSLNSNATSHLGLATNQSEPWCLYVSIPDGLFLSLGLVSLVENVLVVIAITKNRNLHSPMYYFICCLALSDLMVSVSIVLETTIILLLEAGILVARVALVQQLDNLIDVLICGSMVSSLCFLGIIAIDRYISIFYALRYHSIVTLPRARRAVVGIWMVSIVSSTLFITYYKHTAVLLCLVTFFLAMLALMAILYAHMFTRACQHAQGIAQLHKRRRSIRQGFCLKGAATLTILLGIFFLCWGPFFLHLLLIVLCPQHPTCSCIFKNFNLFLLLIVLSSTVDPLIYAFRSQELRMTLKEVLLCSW
Experimental: as §1, §2

Sequence of hMC5-R (P33032 whole entry): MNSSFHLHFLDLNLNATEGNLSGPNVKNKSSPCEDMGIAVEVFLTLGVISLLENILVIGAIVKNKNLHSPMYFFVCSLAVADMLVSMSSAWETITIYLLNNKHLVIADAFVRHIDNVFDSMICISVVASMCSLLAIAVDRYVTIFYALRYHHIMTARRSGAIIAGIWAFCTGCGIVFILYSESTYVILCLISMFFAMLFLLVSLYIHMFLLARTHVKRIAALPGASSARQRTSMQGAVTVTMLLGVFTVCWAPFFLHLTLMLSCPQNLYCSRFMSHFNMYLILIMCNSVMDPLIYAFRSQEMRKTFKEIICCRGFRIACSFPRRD

inhibition at 1 µM (hMC5-R) [%] | inhibition at 1 µM (hMC4-R) [%] | inhibition at 1 µM (hMC1-R) [%] | inhibition at 1 µM (hMC3-R) [%] | inhibition at 1 µM [1] [%] | Structure (SMILES)
11 | 25 | 6 | 13 |  | N[C@@H](Cc1ccccc1)C(=O)N1C[C@H](Cc2ccccc2)NC[C@H]1Cc1ccc2ccccc2c1 [Example 4, (S)-2-Amino-1-((2R,5S)-5-benzyl-2-naphthalen-2-ylmethyl-piperazin-1-yl)-3-phenyl-propan-1-one]
13 | 16 | 17 | 9 | 0 | N[C@H](Cc1ccccc1)C(=O)N1C[C@@H](Cc2ccc3ccccc3c2)NC[C@@H]1Cc1ccccc1 [Example 7, (R)-2-Amino-1-((2S,5R)-2-benzyl-5-naphthalen-2-ylmethyl-piperazin-1-yl)-3-phenyl-propan-1-oneylamino-3-phenyl-propan-1-one]
21 | 39 | 10 | 19 |  | N[C@H](Cc1ccc2ccccc2c1)C(=O)N1C[C@H](Cc2ccccc2)NC[C@H]1Cc1ccc2ccccc2c1 [Example 3, (R)-2-Amino-1-((2R,5S)-5-benzyl-2-naphthalen-2-ylmethyl-piperazin-1-yl)-3-naphthalen-2-yl-propan-1-one]
22 | 34 | 0 | 12 |  | N[C@H](Cc1ccc(Cl)cc1Cl)C(=O)N1C[C@H](Cc2ccccc2)NC[C@H]1Cc1ccc2ccccc2c1 [Example 5, (R)-2-Amino-1-((2R,5S)-5-benzyl-2-naphthalen-2-ylmethyl-piperazin-1-yl)-3-(2,4-dichloro-phenyl)-propan-1-one]
6 | 18 | 9 | 9 |  | O=C(CCc1ccc(Cl)cc1Cl)N1C[C@H](Cc2ccccc2)NC[C@H]1Cc1ccc2ccccc2c1 [Example 2, 1-((2R,5S)-5-Benzyl-2-naphthalen-2-ylmethyl-piperazin-1-yl)-3-(2,4-dichloro-phenyl)-propan-1-one]
8 | 33 | 0 | 14 |  | N[C@H](Cc1ccccc1)C(=O)N1C[C@H](Cc2ccccc2)NC[C@H]1Cc1ccc2ccccc2c1 [Example 1, (R)-2-Amino-1-((2R,5S)-5-benzyl-2-naphthalen-2-ylmethyl-piperazin-1-yl)-3 phenyl-propan-1-one]
13 | 4 | 0 | 12 | 0 | N[C@H](Cc1ccccc1)C(=O)N1C[C@H](Cc2ccccc2)NC[C@H]1Cc1ccccc1 [Example 6, (R)-2-Amino-1-((2R,5S)-2,5-dibenzyl-piperazin-1-yl)-3-phenyl-propan-1-one]
